From patent EP4792811A1, “S1PR4 REGULATOR COMPOUND FOR MUSCLE DISEASE TREATMENT AND APPLICATION THEREOF” (Shengyuan Zetong (Shanghai) Pharmaceutical Co., Ltd, priority 2023, dated 2025)

How the values were obtained:
LPS-induced sepsis model = assay: LPS-induced sepsis myopathy (skeletal muscle atrophy) model; assay type: in vivo, mice; conditions: for atrophy of the tibialis anterior muscle: 14 days of LPS treatment; for survival rate: 14 days after LPS (1 mg/kg)
Source text: Animal models of sepsis can be established by injecting exogenous toxins into animals. In this study, a sepsis model was established via intraperitoneal injection of lipopolysaccharide to observe the effects of compounds on the occurrence and development of acquired weakness. This is a widely used method for modeling sepsis.
A skeletal muscle atrophy model induced by lipopolysaccharide can simulate clinical muscle atrophy caused by sepsis.
Mice were given a single intraperitoneal injection of LPS (1 mg/kg), followed by 14 consecutive days of intraperitoneal injection of either vehicle (1% DMSO dissolved in physiological saline) or Compound 30. Body weight was measured daily. After 14 days of LPS treatment, the mice were anesthetized, and the gastrocnemius and tibialis anterior muscles were harvested.

S1PR5 = molecular target: T1, S1PR5 (Homo sapiens, UniProt Q9H228); assay: FLIPR assay, S1PR5-CHO cell line; assay type: cell-based
T1 construct: expressed in transfected cells; host or cells: CHO
T1 sequence (Q9H228 whole entry, species assumed): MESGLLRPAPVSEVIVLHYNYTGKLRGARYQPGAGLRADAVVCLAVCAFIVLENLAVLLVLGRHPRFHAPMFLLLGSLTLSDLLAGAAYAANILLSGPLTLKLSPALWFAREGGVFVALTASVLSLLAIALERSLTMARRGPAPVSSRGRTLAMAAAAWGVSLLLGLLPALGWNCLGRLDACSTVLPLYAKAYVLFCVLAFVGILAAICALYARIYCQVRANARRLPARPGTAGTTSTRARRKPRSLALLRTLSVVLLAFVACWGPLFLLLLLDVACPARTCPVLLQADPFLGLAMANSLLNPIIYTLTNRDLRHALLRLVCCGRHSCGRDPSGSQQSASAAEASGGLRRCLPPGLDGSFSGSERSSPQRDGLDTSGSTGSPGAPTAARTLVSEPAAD
Description: (§1) ^a β-arrestin recruitment activity based on Tango-S1PR1-CHO-K1 and Tango-S1PR4-CHO-K1 cells, expressed as mean EC50 values ± SD. ^b FLIPR assays were performed using S1PR2-CHO and S1PR5-CHO cell lines, expressed as mean EC50 values ± SD. ^c β-arrestin recruitment activity based on PathHunter CHO-K1-S1PR3 cells, expressed as mean EC50 values ± SD. Data are the mean of at least two independent determinations, reported as mean ± SD (standard deviation).

S1PR3 = molecular target: T2, S1PR3 (Homo sapiens, UniProt Q99500); assay: β-arrestin recruitment, PathHunter CHO-K1-S1PR3 cells; assay type: cell-based
T2 construct: expressed in transfected cells; host or cells: PathHunter CHO-K1
T2 sequence (Q99500 whole entry): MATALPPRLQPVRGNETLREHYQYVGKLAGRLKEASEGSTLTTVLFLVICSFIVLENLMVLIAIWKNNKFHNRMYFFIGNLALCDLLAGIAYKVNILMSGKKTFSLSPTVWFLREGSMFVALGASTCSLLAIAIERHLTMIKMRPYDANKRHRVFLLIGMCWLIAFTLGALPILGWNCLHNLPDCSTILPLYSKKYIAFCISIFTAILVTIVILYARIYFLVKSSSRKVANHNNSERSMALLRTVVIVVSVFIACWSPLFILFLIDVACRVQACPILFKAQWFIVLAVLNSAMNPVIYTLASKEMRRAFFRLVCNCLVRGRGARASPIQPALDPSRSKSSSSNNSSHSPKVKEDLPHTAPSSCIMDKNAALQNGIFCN
Description: as §1

hS1P4 = molecular target: T3, hS1P4 (Homo sapiens, UniProt O95977); assay: Tango β-arrestin recruitment assay, Tango-hS1P4-CHO; assay type: cell-based; conditions: selectivity table; Tango-S1PR4-CHO-K1 cells
T3 construct: expressed in transfected cells; host or cells: CHO-K1
T3 sequence (O95977 1-384): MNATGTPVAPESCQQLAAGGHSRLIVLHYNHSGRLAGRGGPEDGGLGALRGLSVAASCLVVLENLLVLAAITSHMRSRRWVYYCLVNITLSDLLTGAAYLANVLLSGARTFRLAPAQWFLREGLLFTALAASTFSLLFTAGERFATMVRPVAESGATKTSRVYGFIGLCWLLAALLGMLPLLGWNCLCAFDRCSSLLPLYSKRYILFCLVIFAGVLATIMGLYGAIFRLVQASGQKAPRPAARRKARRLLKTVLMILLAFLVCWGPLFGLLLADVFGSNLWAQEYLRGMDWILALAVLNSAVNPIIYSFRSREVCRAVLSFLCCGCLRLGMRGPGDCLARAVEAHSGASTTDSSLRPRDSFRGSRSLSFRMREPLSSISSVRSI
Source text: The Tango assay detects ligand-dependent GPCR activity through the interaction between β-arrestin and GPCRs. […] The NTEV fragment and the tetracycline transactivator (tTA), an artificial transcription factor, are fused at the C-terminus of the GPCR, while the CTEV fragment is fused to human β-arrestin 2. To enhance the stability of the interaction between GPCR and β-arrestin, a short sequence from the C-terminus of the human arginine vasopressin receptor 2 (V2 tail) is inserted between the GPCR and NTEV. The V2 tail contains multiple GRK phosphorylation sites, which strengthen β-arrestin binding upon phosphorylation. The CTEV fragment carries the stabile point mutation S219P and is truncated at residue 221 to remove the autoinhibitory C-terminal tail. Meanwhile, β-arrestin 2 is truncated to lack the entire C-terminal tail (residues 383-410 deleted). This truncation confers robust stimulus-dependent receptor desensitization, thereby improving detection sensitivity compared with wild-type β-arrestin 2. The UAS reporter construct consists of upstream activating sequence (UAS) elements, a minimal CMV promoter, and a tTA-dependent luciferase reporter gene. Therefore, constructing Tango cells requires the co-transfection of the above three plasmids into host cells. Upon GPCR activation and β-arrestin recruitment, the TEV enzyme at the β-arrestin terminus cleaves tTA from the GPCR C-terminus. The released tTA initiates tTA-dependent luciferase transcription, and compound activity is ultimately determined by measuring luminescence intensity.
• 1) Tango cell line from was digested from the culture dish respectively. After cell counting, the cells were plated at a density of 10,000 cells per well with […] into a white opaque 96-well plate (add 60 µL D'Hanks to the surrounding wells), and incubated overnight (20 h) in a 5% CO2 incubator at 37°C. The cell density will reach approximately 90% the next day. • 2) After 20 h, 30 µL of serially diluted compound solution was added to each well. The control group was supplemented with 30 µL F12K complete medium. Each group had three replicate wells. • 3) Samples were collected after 20 h of drug treatment.
(All compounds were tested at a final concentration of 45 µM, with 9 serial dilutions at 5-fold intervals. 1 µM BAF-312 was used as the positive control for S1PR1, and 25 µM BAF-312 was used as the positive control for S1PR4.)
as §1

S1PR2 = molecular target: T4, S1PR2 (Homo sapiens, UniProt O95136); assay: FLIPR assay, S1PR2-CHO cell line; assay type: cell-based
T4 construct: expressed in transfected cells; host or cells: CHO
T4 sequence (O95136 whole entry, species assumed): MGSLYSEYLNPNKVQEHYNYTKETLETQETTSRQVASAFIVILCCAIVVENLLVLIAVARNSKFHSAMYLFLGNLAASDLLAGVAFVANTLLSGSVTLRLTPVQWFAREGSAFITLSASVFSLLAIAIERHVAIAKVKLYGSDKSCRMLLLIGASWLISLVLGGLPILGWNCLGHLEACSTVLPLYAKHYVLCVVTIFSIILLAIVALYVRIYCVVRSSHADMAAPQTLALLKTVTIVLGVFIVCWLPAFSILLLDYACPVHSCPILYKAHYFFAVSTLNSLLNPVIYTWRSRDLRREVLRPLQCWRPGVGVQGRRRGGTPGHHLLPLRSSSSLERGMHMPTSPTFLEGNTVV
Description: as §1

[1] = tested on: Duchenne muscular dystrophy model mice; assay: In vivo pharmacodynamic test in Duchenne muscular dystrophy model mice (Compound 30); conditions: for serum creatine kinase level: after treatment
Description: Experimental Animals: A total of 35 Duchenne muscular dystrophy model mice were divided into 6 groups as shown below.
Intragastric administration was initiated from Day 0. Body weight was measured daily during the experiment to adjust the drug dosage. Grip strength tests were performed every 2 days to observe changes in the mice's grip strength until the experiment concluded on Day 21. Changes in the limb grip strength, serum creatine kinase content, and muscle fibrosis/inflammation in the mice were detected as indicators for evaluating drug efficacy.
The mouse was placed horizontally on the grip test board. The mouse's tail was held and pulled gently in the opposite direction without using excessive force. The tail was gradually pulled until the mouse released the grip force sensor. The maximum value recorded by the grip force sensor is the grip strength. The test was repeated for 3 times and the average value was taken.
After the completion of administration, blood was collected via the orbital sinus, allowed to stand for 30 minutes, centrifuged at 3000 rpm at 4°C for 15 minutes, and serum was extracted, stored frozen at -20°C, and detected in accordance with the kit instructions.
After the experiment, the tibialis anterior, extensor digitorum longus, and diaphragm of the mice were harvested, fixed, sectioned, and subjected to HE staining and Sirius Red staining to observe the degree of muscle fibrosis. The slice was subjected to immunofluorescence staining with F4/80 to observe the level of muscle inflammation.

[2] = compared with the endogenous ligand S1P
[3] = 0.3 mg/kg intragastric once daily
[4] = 0.3 mg/kg intragastric once daily, compared with the model group
[5] = 1 mg/kg intragastric once daily
[6] = 3 mg/kg intragastric once daily

CCc1cc(/C(C)=N/OCc2ccc(-c3ccccc3)c(C)c2)ccc1CN1CC[C@H](C(=O)O)C1 [Compound 30]
atrophy of the tibialis anterior muscle (LPS-induced sepsis model; high dose (Compound 30: 10mg/kg intraperitoneal once daily), 10 mg/kg): significantly inhibited
survival rate (LPS-induced sepsis model; low-dose group (0.1mg/kg intraperitoneal once daily)): 75%
atrophy of the tibialis anterior muscle (LPS-induced sepsis model; medium dose (Compound 30: 1mg/kg intraperitoneal once daily), 1 mg/kg): significantly inhibited
survival rate (LPS-induced sepsis model; medium-dose group (1mg/kg intraperitoneal once daily)): 50%
agonist activity on S1PR5 (S1PR5; [2]): no agonist activity
Emax (S1PR5; selectivity table, FLIPR, S1PR5-CHO): 19.5%
agonist activity on S1PR3 (S1PR3; [2]): no agonist activity
Emax (S1PR3; selectivity table, PathHunter CHO-K1-S1PR3): 2.25%
Emax (hS1P4): 104%
agonist activity on S1PR2 (S1PR2; [2]): no agonist activity
Emax (S1PR2; selectivity table, FLIPR, S1PR2-CHO): -6.9%
collagen deposition (collagen area ratio) [1, 3]: significantly reduced collagen deposition
serum creatine kinase level [1, 3]: significantly reduced
body weight growth trend [1, 4]: no difference
number of centrally nucleated fibers (HE staining) [1, 4]: no significant difference
collagen deposition (collagen area ratio) [1, 5]: significantly reduced collagen deposition
macrophage content (F4/80 immunofluorescence, muscle inflammation) [1, 5]: significantly reduced macrophage content
number of centrally nucleated fibers (HE staining) [1, 5]: significantly reduced
serum creatine kinase level [1, 5]: significantly reduced
body weight growth trend ([1]; 1 mg/kg intragastric once daily, compared with the model group): no difference
collagen deposition (collagen area ratio) [1, 6]: significantly reduced collagen deposition
macrophage content (F4/80 immunofluorescence, muscle inflammation) [1, 6]: significantly reduced macrophage content
number of centrally nucleated fibers (HE staining) [1, 6]: significantly reduced
serum creatine kinase level [1, 6]: significantly reduced
body weight growth trend ([1]; 3 mg/kg intragastric once daily, compared with the other groups): relatively slow
increase in grip strength (ratio of grip strength to body weight) ([1]; 3 mg/kg intragastric once daily, first 14 days): most significant
